Data from patent publication US20210123061A1, “METHODS AND COMPOSITIONS FOR TREATING INFLAMMATORY DISEASE OR DISORDER” (THE BRIGHAM AND WOMEN'S HOSPITAL, INC., priority 2018, published 2021).

Tests used:
STAT1-pSer727 = assay: Anti-STAT1-pSer727 immunoprecipitation with parallel reaction monitoring mass spectrometry; assay type: cell-based, human; conditions: versus IFN-γ (plus DMSO) alone
Experimental: FIGS. 3A-3F show RSK1 is activated through JAK signaling and its inhibition suppresses STAT1 phosphorylation at Ser727 in human primary macrophages in response to IFN-γ. (FIG. 3A) PBMC-derived macrophages were pre-treated with DMSO or 10 μM a pan-JAK inhibitor, pyridone-6, for two hours and then stimulated with IFN-γ for indicated time under serum starvation. Cell lysates were subjected to immunoprecipitation with normal IgG or anti-RSK1 followed by immunoblot analysis using the indicated antibodies. WCL, whole cell lysate. N=3 donors. […] (FIG. 3D) Densitometric based quantification (ImageJ Software) of STAT1-pSer727 in panel (FIG. 3C) plus three additional donors. […] (FIG. 3F) Quantification of PRM ions (MS/MS ions) of the indicated STAT1 peptide harboring a phosphorylation at Ser727 (and oxidized methionine, m), generated from the digest of panel […].
Anti-STAT1-pSer727 IPs—The STAT1 peptide with phosphorylation at Ser727 was detected on the Orbitrap Fusion Lumos. […]
Anti-STAT1-pSer727 IPs—The three most abundant fragment ions of the target peptide (LQTTDNLLPmsPEEFDEVSR (SEQ ID NO: 5)-m10-oxidation, s11-phosphorylation, 806.3575 m/z, z=3) as annotated by SEQUEST (PD2.1) were used for quantification: y12^2+, 759.79455 m/z; c12^+, 1424.64911 m/z; b8^+, 899.48327 m/z. AUC of each fragment was calculated using the Skyline software (https://skyline.gs.washington.edu). […]

[1] = system: IFN-γ-induced chemokine mRNA; assay: Real-time PCR of IFN-γ-induced genes in PBMC-derived macrophages; assay type: cell-based, human; conditions: 1 or 10 μM for two hours, then IFN-γ eight hours, vs DMSO
Experimental: FIGS. 4A-D show silencing RSK1 suppresses IFN-γ-induced chemokines in human primary macrophages. (FIG. 4A and FIG. 4B) Human PBMC-derived macrophages were treated with control siRNA or RSK1 siRNA followed by treatment with IFN-γ for the indicated time. Total RNA samples were subjected to real-time PCR analysis using the indicated probes and primers. GAPDH was used for normalization. (FIG. 4A) Representative results from one donor. Data are means±SD. (FIG. 4B) Quantification of the area-under-the-curve (AUC) plots of the real-time PCR data in panel (FIG. 4A). Data are means±SE. N=3 donors. *P<0.05 and **P<0.01 indicate significance for AUC of mRNA levels by paired Student's test. (FIG. 4C) Macrophages were treated with DMSO or BI-D1870 (1 or 10 μM) for two hours followed by stimulation with IFN-γ for eight hours. Total RNA samples were subjected to real-time PCR analysis using the indicated probes and primers. GAPDH was used for normalization. Data are means±SE. N=3-4 donors. *P<0.05 and **P<0.01 indicate significance for mRNA levels compared to control (treatment with DMSO and IFN-γ) by Dunnett's comparison test. […] Secreted chemokine levels were measured using ELISA. […]
Real-time PCR. […] The mRNA levels were determined by TaqMan-based real-time PCR reactions (Thermo Fisher Scientific). […] Data were normalized by human GAPDH and then calculated using the delta-delta Ct method.

CC(C)CCN1c2nc(Nc3cc(F)c(O)c(F)c3)ncc2N(C)C(=O)C1C (stereo not drawn) [BI-D1870]
STAT1-pSer727 recovered post-immunoprecipitation (STAT1-pSer727): less
pSer727 site-specific signal, PRM of three EThcD fragment ions (STAT1-pSer727): decrease in signal
mRNA levels of pro-inflammatory chemokines such as CCL2/MCP-1 [1]: attenuated
